Earlier results as cited in patent publication US7273620B1, “Triggered release of liposomal drugs following mixing of cationic and anionic liposomes” (University of British Columbia, priority 2002, dated 2007).

Settings: from LUV; depends on acyl chain length of ceramide anchor

For “1-O-(2′-(ω-methoxypolyethylene-glycol)succinoyl)-2-N-myristoylsphyngosine [PEG-CerC14]”, the “dissociation rate of PEG-Ceramide” value is given as 1.2 h.
